Residue numbers refer to the chain shown, from its start. In names and notes the source's numbering stands.

Data on five molecules can be found in PMC12369846, “Structural Insights into Isovaleryl-Coenzyme A Dehydrogenase: Mechanisms of Substrate Specificity and Implications of Isovaleric Acidemia-Associated Mutations” (Research, 2025).

Series [1] deals with T1, human IVD (isovaleryl-CoA dehydrogenase) (Homo sapiens, UniProt P26440, E286A).
T1 construct: residues 33-426 (transit peptide removed), N-terminal 8xHis tag, pET-28a, E. coli BL21(DE3)
T1 sequence (P26440 33-426 E286A): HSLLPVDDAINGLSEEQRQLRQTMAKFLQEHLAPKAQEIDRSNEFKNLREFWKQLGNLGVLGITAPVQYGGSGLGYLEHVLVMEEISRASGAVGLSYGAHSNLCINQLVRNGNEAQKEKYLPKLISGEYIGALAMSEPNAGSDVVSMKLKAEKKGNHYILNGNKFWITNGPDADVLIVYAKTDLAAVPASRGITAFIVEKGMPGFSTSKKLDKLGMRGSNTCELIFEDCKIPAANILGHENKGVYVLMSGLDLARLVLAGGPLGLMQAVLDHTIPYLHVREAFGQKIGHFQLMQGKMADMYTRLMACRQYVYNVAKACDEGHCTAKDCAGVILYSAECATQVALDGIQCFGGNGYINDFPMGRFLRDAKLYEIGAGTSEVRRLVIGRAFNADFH
Put plainly: surface plasmon resonance. It counts as binding. The conditions noted are these: read-out: KDapp.

In series [2] the target is T2, human IVD (isovaleryl-CoA dehydrogenase) (Homo sapiens, UniProt P26440).
T2 construct: residues 33-426 (transit peptide removed), N-terminal 8xHis tag, pET-28a, E. coli BL21(DE3)
T2 sequence (P26440 33-426): T1 sequence (P26440 33-426 E286A) with A254E
Put plainly: cryo-EM structure. The conditions noted are these: noncovalent cofactor, 4 FAD per tetramer; FAD added to buffer; pH 7.4; 2.55 Å. It counts as binding.

Series [3] has as its target T3, Isovaleryl-CoA dehydrogenase (IVD), human, wild type, residues 33-426 (human), P26440.
T3 chain: T1 sequence (P26440 33-426 E286A) with A254E
The series can be described thus: cryo-EM structure; purified IVD from SEC in 50 mM tris-HCl pH 7.4, 150 mM NaCl with added FAD; no acyl-CoA; 2.55 Å. The conditions noted are these: remark: other sources report otherwise.

Series [4] deals with the molecule itself. The series can be described thus: cryo-EM structure; purified IVD E286A incubated with isovaleryl-CoA or butyryl-CoA at 37 °C for 15 min, FAD bound; 3.35 and 2.91 Å.

Take `CCCC(=O)SCCNC(=O)CCNC(=O)[C@H](O)C(C)(C)COP(=O)(O)OP(=O)(O)OC[C@H]1O[C@@H](n2cnc3c(N)ncnc32)[C@H](O)[C@@H]1OP(=O)(O)O` [butyryl-CoA]: the Kd in series [1] came out at 494 nM.

Consider `Cc1cc2nc3c(=O)[nH]c(=O)nc-3n(C[C@H](O)[C@H](O)[C@H](O)COP(=O)(O)OP(=O)(O)OC[C@H]3O[C@@H](n4cnc5c(N)ncnc54)[C@H](O)[C@@H]3O)c2cc1C` [FAD], for which, in series [2], the cryo-EM structure entry is “resolved in the form of only combining with FAD molecules”.

In the case of `CC(C)CC(=O)SCCNC(=O)CCNC(=O)[C@H](O)C(C)(C)COP(=O)(O)OP(=O)(O)OC[C@H]1O[C@@H](n2cnc3c(N)ncnc32)[C@H](O)[C@@H]1OP(=O)(O)O` [isovaleryl-CoA], the Kd in series [1] worked out at 848 nM.

B1: Isovaleryl-CoA dehydrogenase (IVD), human, wild type, residues 33-426, P26440 33-426 (enzyme)
chain: T1 sequence (P26440 33-426 E286A) with A254E
Broadly, the stoichiometry N is the number of molecules, sites or subunits per partner or assembly. On to B1, for which the stoichiometry N in series [3] was 4.

B2: Isovaleryl-CoA dehydrogenase (IVD), human, E286A mutant, residues 33-426 (enzyme, UniProt P26440 33-426, looked up)
chain: T1 sequence (P26440 33-426 E286A)
notes: human isovaleryl-CoA dehydrogenase (IVD), residues 33 to 426, catalytic-base mutant made by PCR on the WT plasmid; Used for the cryo-EM structures with isovaleryl-CoA and butyryl-CoA; also called IVD E286A; source: E. coli BL21 (DE3), purified (Ni-NTA, SEC on Superdex 200)
As for B2, in series [4], the binding result is recorded as “binds”.
